Source: patent publication US6372793B1, “Method for treatment of a neurological disease characterized by impaired neuromodulator function” (Florida Agricultural & Mechanical University, priority 1999, dated 2002)
Counter-ions that a name gives are not always drawn.

How the values were obtained:
rat brain membranes = experiment: SAM-dependent methylation of FC analogs by rat brain membranes; type: biochemical; conditions: 60 min; for methylation by rat nerve cell membranes in the presence of [3H-methyl]SAM: 200 mmM analog, 37° C.
Protocol: AFC, FTP and FTS (200 mmM) were each incubated for 60 min with rat brain membranes (240 mmg of protein) at 37° C. in 100 mM Tris-HCl, pH 7.4 containing SAM (10 mmM, 1.3 mmCi [^3H-methyl]-SAM), 5 mM MgSO4 and 0.1 M NaCl in a total incubation volume of 400 mml. The reactions were stopped with 5% TFA and chilled on ice. Hexane (400 mml) was added and the contents of the tubes mixed thoroughly. This was followed by centrifugation at 20,000 g for 2 min. The upper hexane layer was removed and 250 mml analyzed by reversed-phase HPLC on a Whatman column (C18, 4.6×150 mm). Methylated FC analogs were eluted from the column at a rate of 1 ml/min with a 0 to 100% gradient of acetonitrile in 0.1% TFA from the 3rd to the 15th min of each run. This composition was maintained for a further 2 min before re-equilibration of the column for the next sample. Detection was conducted with an online radiochromatographic detection system (INUS β-ram, Tampa, Fla.).

SAM-induced tremors [1] = experiment: Effect of farnesylcysteine/prenylcysteine analogs on SAM-induced tremors and PD-like symptoms; type: in vivo, rat; conditions: 20 min
Protocol: (§1) Rats were cannulated for subsequent injections into the lateral ventricle as previously described (Charlton and Mack, 1994). Briefly, each rat was anesthetized with 400 mg/kg of chloral hydrate. A stainless steel guide cannula was stereotaxically placed 1.5 mm lateral and 0.6 mm caudal to the Bregma with the tip extended to the inner surface of the cranium, above the dura mater. At least 2 days following cannulation, injections were made through the cannula into the lateral ventricle with a 26 gauge insertion cannula, pre-measured to descend 5 mm from the surface of the skull into the lateral ventricle. Each injected rat was put in a cage which was then placed on the sensor assembly of the Tremor-Scan Monitor. The recording parameters were set according to the manufacturer's instructions by adjusting the Gain on the instrument to 4 which insured that most of the signals with large or small amplitudes remained within the detection limit or not reduced to the baseline respectively, as viewed on the computer monitoring screen. The noise that could interfere with the SAM-induced tremors is usually of low amplitude and was reduced to baseline levels by this gain setting. This setting was used for all subsequent recording and storage of the vibration signals due to tremor-like activities of the
AFC, FTP and FTS were each suspended in PBS and dissolved by adjusting the pH to 7.4 with NaOH followed by the addition of more PBS to make 0.2 mmol/ml solutions. PBS or each compound, dissolved in 5 mml of solution, was injected into the lateral ventricle of cannulated rats 5 min prior to SAM injections. SAM (1 mmmol in 5 mml of PBS) was injected and the movements recorded over a 20 min period as described above.

SAM-induced tremors [2] = experiment: Effect of L-DOPA, SAH and NADA on SAM-induced tremors; type: in vivo, rat; conditions: for total duration of tremors / number of tremors: 20 min; for effect on the SAM-induced PD-like symptoms: icv before SAM
Protocol: as §1
Cannulated rats were injected either with PBS (5 mml), L-DOPA (1.5 mmmol), SAH (1.0 mmmol) or NADA (1.0 mmmol) followed by an injection of either 0.75 or 1.0 mmmol of SAM. Each compound was dissolved or finely suspended in PBS. They were then monitored for tremors on the Tremor Monitor for a period of 20 min.

rat nerve cell membranes = experiment: In vitro association of [3H-methyl]SAM or 3H-MPP+ with rat nerve cell membranes; type: binding; conditions: for effect on 3H-MPP+ association with membranes: non-radioactive competitor; for effect on association of [3H-methyl]SAM radioactivity with membranes: 100 mmM non-radioactive compound in the incubation mixture
Protocol: Rat brain (1.76 g) was homogenized in 20 ml of 50 mM Tris-HCl, pH 7.4 containing 2.5 mM EDTA and 0.02% bovine serum albumin and centrifuged at 900×g for 10 min. The supernatant was transferred and the pellet re-suspended in the same buffer and centrifuged. The 900×g supernatants were combined and centrifuged at 20,000×g for 40 min. The supernatant was removed and the pellet resuspended in 5 ml of buffer, aliquoted and frozen at −70° C. until needed.
To understand whether the behavioral effects of SAM were due to interactions with cellular macromecules, [^3H-methyl]SAM (0.2 mmCi) was incubated with rat nerve cell membranes (30 mmg of protein) at 37° C. At the appropriate incubation periods, the reaction tubes were removed and centrifuged (13,000 rpm, MSE Centaur) for 10 min. The supernatant was discarded and the pellet suspended in scintillation fluid and their total radioactive content determined by scintillation counting.

rats [3] = experiment: Effect of farnesylcysteine analogs on the movements of rats (Animal Activity Monitor); type: in vivo, rat; conditions: 1 mmmol icv alone or in combination with 1 mmmol of SAM
Protocol: Cannulated rats were injected (icv) with AFC or FTP (1 mmmol, 5 mml) in combination with PBS or 1 mmmol of SAM, injected similarly 5 min after injection of the FC analogs. Their movements were measured in an Animal Activity Monitor (AccuScan Electronics, Inc., Columbus, Ohio) and compared to those of control animals that received PBS.

[4] = test system: 6-hydroxydopamine-lesioned rats; experiment: Amphetamine-induced ipsiversive rotation of 6-hydroxydopamine-lesioned rats (RotoScan Rotometer); type: in vivo, rat
rats [5] = experiment: Tremors and PD-like symptoms induced by icv SAM, recorded on the Tremor-Scan Monitor; type: in vivo, rat
Protocol: as §1
The Tremor Monitor software, which allows for the determination of 1) the signal amplitude, 2) the number of cycles in each activity or episode, 3) the number of activities and 4) the duration of each activity or episode, aided in the storage and subsequent retrieval and analysis of the recorded activity profiles. Analysis of the stored data was achieved by altering the minimum and maximum frequency, amplitude and number of cycles to reflect the unique properties of each kind of movement and thus delineate the SAM-induced tremors from non-tremor activity signals.
The dose-dependent effects of SAM was also determined in cannulated rats injected with 0 (PBS), 0.5, 0.75 and 1.0 mmmol of SAM. Their tremor activities were recorded on the Tremor-Scan monitor for 20 min.
To determine the duration and magnitude of SAM-induced tremors, groups of cannulated rats were injected either with 1 mmmol of SAM or with 5 mml of PBS, as control. The animals were monitored on the Tremor-Scan Monitor for a duration of 2 h starting immediately after the injections.

[6] = 1 mmmol FC analog icv 5 min before 1 mmmol SAM
[7] = 1 mmmol NADA or SAH icv followed by 1 mmmol SAM, or SAM alone
[8] = 1 mmmol SAM icv, first 10 min interval of 2 h recording
[9] = 20 min, re-analysis with minimum amplitude 20 and minimum cycles per activity 20
[10] = SAM icv, 20 min recording, frequency window 8 to 20, minimum amplitude 10, minimum 10 cycles
[11] = raw data, 20 min monitoring, minimum amplitude 10, minimum cycles 10
[12] = 1.5 mmmol L-DOPA icv before 0.75 mmmol SAM, or SAM alone
[13] = 0 mmmol FC analog followed by 1 mmmol SAM

## CC(C)=CCCC(C)=CCCC(C)=CCSc1ccccc1C(=O)O [FTS, farnesylthiosalicylic acid]
Rat brain membranes
  methylation by rat nerve cell membranes in the presence of [3H-methyl]SAM: never methylated
Rat brain membranes; indicated concentrations of FTS
  inhibition of the methylation of AFC and FTP: dose-dependently inhibited
SAM-induced tremors [1]; [6]
  tremors observed: significantly fewer tremors

## CC(=O)NCCc1ccc(O)c(O)c1 [NADA, N-acetyldopamine]
SAM-induced tremors [2]; [7]
  total duration of tremors: 200±43
SAM-induced tremors [2]
  effect on the SAM-induced PD-like symptoms: little or no effect

## Nc1ncnc2c1ncn2[C@@H]1O[C@H](CSCC[C@H](N)C(=O)O)[C@@H](O)[C@H]1O [SAH, S-adenosyl-L-homocysteine]
SAM-induced tremors [2]; [7]
  total duration of tremors: 212±52
SAM-induced tremors [2]
  effect on the SAM-induced PD-like symptoms: little or no effect
Rat nerve cell membranes; [3H-methyl]SAM, 100 mmM competitor in the incubation mixture
  radioactivity associated with the membranes in presence of competitor: about 2000 DPM
Rat nerve cell membranes
  effect on 3H-MPP+ association with membranes: little affected

## CC(=O)N[C@@H](CSC/C=C(\C)CC/C=C(\C)CCC=C(C)C)C(=O)O [AFC, N-acetyl-S-farnesyl-L-cysteine]
Rat brain membranes
  methylation by rat nerve cell membranes in the presence of [3H-methyl]SAM: avid methyl acceptors
SAM-induced tremors [1]; 0.5 mmmol FC analog icv 5 min before 1 mmmol SAM
  tremors observed: significant reduction of tremors
SAM-induced tremors [1]; [6]
  tremors observed: no tremors
Rats [3]
  movement activity: significantly higher degree of movement activity
[4]; AFC alone, no amphetamine
  net rotations: only few net rotations
[4]; amphetamine ip plus AFC 1 mmmol icv, versus amphetamine alone
  increase of amphetamine-induced rotation: 2 fold
[4]; amphetamine ip plus AFC 1 mmmol into the left lateral ventricle
  ipsiversive rotations within 90 min: 830±110
[4]; amphetamine ip plus AFC 1 mmmol into the right lateral ventricle
  ipsiversive rotations within 90 min: 790±160

## C[S+](CC[C@H](N)C(=O)[O-])C[C@H]1O[C@@H](n2cnc3c(N)ncnc32)[C@H](O)[C@@H]1O (stereo partly drawn) [[^3H-methyl]SAM, S-[methyl-^3H]-SAM]
Rat nerve cell membranes; [3H-methyl]SAM incubated with rat nerve cell membrane preparation, no competitor
  radioactivity associated with the membranes: about 6000 DPM

## C[S+](CC[C@H](N)C(=O)O)C[C@H]1O[C@@H](n2cnc3c(N)ncnc32)[C@H](O)[C@@H]1O (stereo partly drawn) [SAM, S-Adenosyl-L-methionine]
Rats [5]; 0.5 mmmol SAM icv, 20 min
  number of tremors: minimal
  total duration of tremors: minimal
Rats [5]; 0.75 mmmol SAM icv, 20 min
  increase in number of tremors: 7 fold
  increase in total duration of tremors compared to the 0.5 mmmol injection: 9 fold
Rats [5]; 1 mmmol SAM icv
  rate of tremor episodes during the first 10 min: about 2 episodes per min
  time that abnormal posture, hypokinesia and rigidity remained: about 90 min
Rats [5]; 1 mmmol SAM icv, 20 min
  increase in number of tremors: 8 fold
  increase in total duration of tremors compared to the 0.5 mmmol injection: 12 fold
Rats [5]; [8]
  number of tremors in the first 10 min interval: 19±4
  total duration of tremors within the first 10 min: 120 ± 20 s
Rats [5]; [9]
  number of tremor activities: 70±8
  total duration of tremor activity: 360 ± 18 s
Rats [5]; [10]
  average amplitude: 42.3±5
  frequency: 12±0.1
  number of cycles (waves) per activity: 54±6
Rats [5]; SAM into the lateral ventricle
  time to onset of tremors, hypokinesia, rigidity and abnormal posture after injection: 0.5 to 2 min
Rats [5]; [11]
  number of activities: 92±12
  total duration of tremors: 470 ± 50 s
SAM-induced tremors [2]; [7]
  total duration of tremors: 273±128
SAM-induced tremors [2]; [12]
  number of tremors: 33±7
  total duration of tremors: 170 ± 34 s
Rat nerve cell membranes; 100 mmM non-radioactive SAM added after 2 h incubation with [3H-methyl]SAM
  change of membrane-associated radioactivity after addition of non-radioactive compound (reversibility): neither increased nor decreased
Rat nerve cell membranes
  effect on association of [3H-methyl]SAM radioactivity with membranes: inhibited
  effect on 3H-MPP+ association with membranes: little affected
SAM-induced tremors [1]; [13]
  duration of tremors: 310 ± 70 s
  number of tremors: 46±10

## C[C@H](N)Cc1ccccc1 [amphetamine, d-amphetamine sulfate]
[4]; amphetamine ip (5 mg/kg) alone, 7 days after intrastriatal 6-OHDA
  ipsiversive rotations within 90 min: 390±130

## C[n+]1ccc(-c2ccccc2)cc1 [MPP^+, 1-methyl-4-phenylpyridinium ion]
Rat nerve cell membranes
  effect on association of [3H-methyl]SAM radioactivity with membranes: No effect

## N[C@@H](Cc1ccc(O)c(O)c1)C(=O)O [L-DOPA, L-dihydroxyphenylalanine]
SAM-induced tremors [2]; [12]
  number of tremors: 25±4
  total duration of tremors: 111 ± 22 s
SAM-induced tremors [2]
  effect on the SAM-induced PD-like symptoms: little or no effect
